Results from patent publication US10533010B2, “Substituted indole Mcl-1 inhibitors” (Vanderbilt University, priority 2014, dated 2020).

Molecular target: recombinant Mcl-1 (residues 172-327) (Homo sapiens (Human), UniProt Q07820)
Test: Fluorescence polarization anisotropy competition assay (FITC-Bak or FITC-Bim BH3 peptide) with Mcl-1
Assay type: binding
Settings: Table 2; Ki bins given in nM; FITC-Bak or FITC-Bim peptide competition; Ki converted from IC50; read-out: Ki for Inhibition of Mcl-1

recombinant Mcl-1 (residues 172-327), sequence (Q07820 172-327): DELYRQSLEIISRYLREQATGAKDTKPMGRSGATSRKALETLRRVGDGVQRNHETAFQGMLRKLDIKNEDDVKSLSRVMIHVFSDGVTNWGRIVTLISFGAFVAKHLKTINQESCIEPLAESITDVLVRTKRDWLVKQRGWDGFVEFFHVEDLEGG

Compound | Ki
Cc1cc(OCCCc2c(C(=O)N3CCC(CC(=O)O)CC3)[nH]c3c(-c4c(C)nn(C)c4C)cccc23)cc(C)c1Cl [I-204, 2-(1-(3-(3-(4-chloro-3,5-dimethylphenoxy)propyl)-7-(1,3,5-trimethyl-1H-pyrazol-4-yl)-1H-indole-2-carbonyl)piperidin-4-yl)acetic acid] | 51 to 100 nM
Cc1cc(OCCCc2c(C(=O)NCCC(=O)NS(=O)(=O)c3cccnc3)[nH]c3ccccc23)cc(C)c1Cl [I-15, 3-(3-(4-chloro-3,5-dimethylphenoxy)propyl)-N-(3-oxo-3-(pyridine-3-sulfonamido)propyl)-1H-indole-2-carboxamide] | 101 to 299 nM
Cc1cc(OCCCc2c(C(=O)NCCC(=O)NS(=O)(=O)c3ccc([N+](=O)[O-])cc3)[nH]c3c(-c4c(C)n[nH]c4C)cccc23)cc(C)c1Cl [I-24, 3-(3-(4-chloro-3,5-dimethylphenoxy)propyl)-7-(3,5-dimethyl-1H-pyrazol-4-yl)-N-(3-((4-nitrophenyl)sulfonamido)-3-oxopropyl)-1H-indole-2-carboxamide] | 101 to 299 nM
Cc1cc(OCCCc2c(C(=O)N3CCN(c4ccc(C(=O)O)cc4)CC3)n(Cc3ccncc3)c3c(-c4c(C)nn(C)c4C)c(Cl)ccc23)cc(C)c1Cl [I-340, 4-(4-(6-chloro-3-(3-(4-chloro-3,5-dimethylphenoxy)propyl)-1-(pyridin-4-ylmethyl)-7-(1,3,5-trimethyl-1H-pyrazol-4-yl)-1H-indole-2-carbonyl)piperazin-1-yl)benzoic acid] | 51 to 100 nM
Cc1cc(OCCCc2c3n(c4c(-c5c(C)nn(C)c5C)c(Cl)ccc24)[C@@H](C)CN(c2ccc(C(=O)O)cc2)C3=O)cc(C)c1Cl [I-166, (S)-4-(7-chloro-10-(3-(4-chloro-3,5-dimethylphenoxy)propyl)-4-methyl-1-oxo-6-(1,3,5-trimethyl-1H-pyrazol-4-yl)-3,4-dihydropyrazino[1,2-a]indol-2(1H)-yl)benzoic acid] | < 50 nM
Cc1cc(OCCCc2c(C(=O)N[C@H]3CCCC[C@H]3C(=O)O)[nH]c3c(-c4c(C)nn(C)c4C)c(Cl)ccc23)cc(C)c1Cl [I-333, (1R,2S)-2-(6-chloro-3-(3-(4-chloro-3,5-dimethylphenoxy)propyl)-7-(1,3,5-trimethyl-1H-pyrazol-4-yl)-1H-indole-2-carboxamido)cyclohexane-1-carboxylic acid] | < 50 nM
Cc1cc(OCCCc2c(C(=O)N3CCN(c4ccc(C(=O)O)cc4)CC3)n(Cc3cccnc3)c3c(-c4c(C)nn(C)c4C)c(Cl)ccc23)cc(C)c1Cl [I-338, 4-(4-(6-chloro-3-(3-(4-chloro-3,5-dimethylphenoxy)propyl)-1-(pyridin-3-ylmethyl)-7-(1,3,5-trimethyl-1H-pyrazol-4-yl)-1H-indole-2-carbonyl)piperazin-1-yl)benzoic acid] | < 50 nM
Cc1cc(OCCCc2c3n(c4c(-c5c(C)nn(C)c5C)c(Cl)ccc24)CCC(C)NC3=O)cc(C)c1Cl (stereo not drawn) [I-114, 8-chloro-1-(3-(4-chloro-3,5-dimethylphenoxy)propyl)-3-methyl-7-(1,3,5-trimethyl-1H-pyrazol-4-yl)-2,3,4,5-tetrahydro-1H-[1,4]diazepino[1,2-a]indol-1-one] | < 50 nM
Cc1cc(OCCCc2c3n(c4c(-c5c(C)nn(C)c5C)c(Cl)ccc24)CC(C)CN(Cc2ccc(C(=O)O)cc2)C3=O)cc(C)c1Cl (stereo not drawn) [I-133, 4-((8-chloro-11-(3-(4-chloro-3,5-dimethylphenoxy)propyl)-4-methyl-1-oxo-7-(1,3,5-trimethyl-1H-pyrazol-4-yl)-4,5-dihydro-1H-[1,4]diazepino[1,2-a]indol-2(3H)-yl)methyl)benzoic acid] | < 50 nM
Cc1cc(OCCCc2c(C(=O)N[C@H]3CCC[C@H]3C(=O)O)[nH]c3c(-c4c(C)nn(C)c4C)cccc23)cc(C)c1Cl [I-314, (1R,2S)-2-(3-(3-(4-chloro-3,5-dimethylphenoxy)propyl)-7-(1,3,5-trimethyl-1H-pyrazol-4-yl)-1H-indole-2-carboxamido)cyclopentane-1-carboxylic acid] | 51 to 100 nM
Cc1cc(OCCCc2c3n(c4c(-c5c(C)nn(C)c5C)cccc24)CCCN(Cc2cc(C(=O)O)cc([N+](=O)[O-])c2)C3=O)cc(C)c1Cl [I-86, 3-((11-(3-(4-chloro-3,5-dimethylphenoxy)propyl)-1-oxo-7-(1,3,5-trimethyl-1H-pyrazol-4-yl)-4,5-dihydro-1H-[1,4]diazepino[1,2-a]indol-2(3H)-yl)methyl)-5-nitrobenzoic acid] | < 50 nM
Cc1cc(OCCCc2c3n(c4c(-c5c(C)nn(C)c5C)cc(Cl)cc24)CCCN(c2cccc(C(=O)O)c2)C3=O)cc(C)c1Cl [I-246, 3-(9-chloro-11-(3-(4-chloro-3,5-dimethylphenoxy)propyl)-1-oxo-7-(1,3,5-trimethyl-1H-pyrazol-4-yl)-4,5-dihydro-1H-[1,4]diazepino[1,2-a]indol-2(3H)-yl)benzoic acid] | 101 to 299 nM
Cc1cc(OCCCc2c3n(c4c(-c5c(C)nn(C)c5C)c(Cl)ccc24)C(C)CCNC3=O)cc(C)c1Cl (stereo not drawn) [I-116, 8-chloro-1-(3-(4-chloro-3,5-dimethylphenoxy)propyl)-5-methyl-7-(1,3,5-trimethyl-1H-pyrazol-4-yl)-2,3,4,5-tetrahydro-1H-[1,4]diazepino[1,2-a]indol-1-one] | < 50 nM
Cc1cc(OCCCc2c3n(c4c(-c5c(C)nn(C)c5C)c(Cl)ccc24)C[C@@H](C)N(Cc2ccc(C(=O)O)cc2)C3=O)cc(C)c1Cl [I-120, (R)-4-((7-chloro-10-(3-(4-chloro-3,5-dimethylphenoxy)propyl)-3-methyl-1-oxo-6-(1,3,5-trimethyl-1H-pyrazol-4-yl)-3,4-dihydropyrazino[1,2-a]indol-2(1H)-yl)methyl)benzoic acid] | < 50 nM
Cc1cc(OCCCc2c3n(c4c(-c5c(C)nn(C)c5C)c(Cl)ccc24)CCCN(Cc2cc(OCCC(C)C)cc(C(=O)O)c2)C3=O)cc(C)c1Cl [I-300, 3-((8-chloro-11-(3-(4-chloro-3,5-dimethylphenoxy)propyl)-1-oxo-7-(1,3,5-trimethyl-1H-pyrazol-4-yl)-4,5-dihydro-1H-[1,4]diazepino[1,2-a]indol-2(3H)-yl)methyl)-5-(isopentyloxy)benzoic acid] | < 50 nM
Cc1cc(OCCCc2c3n(c4c(-c5c(C)nn(C)c5C)c(Cl)ccc24)C[C@@H](C)N(Cc2ccc(C(=O)O)o2)C3=O)cc(C)c1Cl [I-123, (R)-5-((7-chloro-10-(3-(4-chloro-3,5-dimethylphenoxy)propyl)-3-methyl-1-oxo-6-(1,3,5-trimethyl-1H-pyrazol-4-yl)-3,4-dihydropyrazino[1,2-a]indol-2(1H)-yl)methyl)furan-2-carboxylic acid] | < 50 nM

Further lines, results first:

Ki | Compound
< 50 nM | Cc1cc(OCCCc2c3n(c4c(-c5c(C)nn(C)c5C)c(Cl)ccc24)CCCN(c2cccc(-c4nn[nH]n4)c2)C3=O)cc(C)c1Cl [I-354, 2-(3-(2H-tetrazol-5-yl)phenyl)-8-chloro-1-(3-(4-chloro-3,5-dimethylphenoxy)propyl)-7-(1,3,5-trimethyl-1H-pyrazol-4-yl)-2,3,4,5-tetrahydro-1H-[1,4]diazepino[1,2-a]indol-1-one]
< 50 nM | Cc1cc(OCCCc2c3n(c4c(-c5c(C)nn(C)c5C)c(Cl)ccc24)CCCN(c2cc(C(=O)O)cc4c2ccn4Cc2cccnc2)C3=O)cc(C)c1Cl [I-242, 4-(8-chloro-11-(3-(4-chloro-3,5-dimethylphenoxy)propyl)-1-oxo-7-(1,3,5-trimethyl-1H-pyrazol-4-yl)-4,5-dihydro-1H-[1,4]diazepino[1,2-a]indol-2(3H)-yl)-1-(pyridin-3-ylmethyl)-1H-indole-6-carboxylic acid]
< 50 nM | Cc1cc(OCCCc2c3n(c4c(-c5c(C)nn(C)c5C)c(Cl)ccc24)[C@@H](C)CN(c2cc(C(=O)O)cc4c2ccn4C)C3=O)cc(C)c1Cl [I-167, (S)-4-(7-chloro-10-(3-(4-chloro-3,5-dimethylphenoxy)propyl)-4-methyl-1-oxo-6-(1,3,5-trimethyl-1H-pyrazol-4-yl)-3,4-dihydropyrazino[1,2-a]indol-2(1H)-yl)-1-methyl-1H-indole-6-carboxylic acid]
< 50 nM | Cc1cc(OCCCc2c3n(c4c(-c5c(C)nn(C)c5C)c(Cl)ccc24)CCCN(c2ccc(C(=O)O)c(F)c2)C3=O)cc(C)c1Cl [I-94, 4-(8-chloro-11-(3-(4-chloro-3,5-dimethylphenoxy)propyl)-1-oxo-7-(1,3,5-trimethyl-1H-pyrazol-4-yl)-4,5-dihydro-1H-[1,4]diazepino[1,2-a]indol-2(3H)-yl)-2-fluorobenzoic acid]
< 50 nM | Cc1cc(OCCCc2c3n(c4c(-c5c(C)nn(C)c5C)c(Cl)ccc24)CCCN(c2cc(C(=O)O)cc4c2OCCO4)C3=O)cc(C)c1Cl [I-364, 8-(8-chloro-11-(3-(4-chloro-3,5-dimethylphenoxy)propyl)-1-oxo-7-(1,3,5-trimethyl-1H-pyrazol-4-yl)-4,5-dihydro-1H-[1,4]diazepino[1,2-a]indol-2(3H)-yl)-2,3-dihydrobenzo[b][1,4]dioxine-6-carboxylic acid]
< 50 nM | Cc1cc(OCCCc2c3n(c4c(-c5c(C)nn(C)c5C)c(Cl)ccc24)CCCN(c2ccnc4c(C(=O)O)cccc24)C3=O)cc(C)c1Cl [I-104, 4-(8-chloro-11-(3-(4-chloro-3,5-dimethylphenoxy)propyl)-1-oxo-7-(1,3,5-trimethyl-1H-pyrazol-4-yl)-4,5-dihydro-1H-[1,4]diazepino[1,2-a]indol-2(3H)-yl)quinoline-8-carboxylic acid]
< 50 nM | Cc1cc(OCCCc2c3n(c4c(-c5c(C)nn(C)c5C)c(Cl)ccc24)CCCN(c2cc(CN(C)C)cc(C(=O)O)c2)C3=O)cc(C)c1Cl [I-226, 3-(8-chloro-11-(3-(4-chloro-3,5-dimethylphenoxy)propyl)-1-oxo-7-(1,3,5-trimethyl-1H-pyrazol-4-yl)-4,5-dihydro-1H-[1,4]diazepino[1,2-a]indol-2(3H)-yl)-5-((dimethylamino)methyl)benzoic acid]
< 50 nM | Cc1cc(OCCCc2c3n(c4c(-c5c(C)nn(C)c5C)c(Cl)ccc24)CCCN(c2cc(CN4CCCC4)cc(C(=O)O)c2)C3=O)cc(C)c1Cl [I-225, 3-(8-chloro-11-(3-(4-chloro-3,5-dimethylphenoxy)propyl)-1-oxo-7-(1,3,5-trimethyl-1H-pyrazol-4-yl)-4,5-dihydro-1H-[1,4]diazepino[1,2-a]indol-2(3H)-yl)-5-(pyrrolidin-1-ylmethyl)benzoic acid]
